This is an account of results in patent US20200247855A1, “THERAPY AND DIAGNOSTICS” (OXFORD UNIVERSITY INNOVATION LIMITED, priority 2017, published 2020).

One may read the IC50 as the concentration that gives 50% inhibition.

Test [1] addresses CCL2_HUMAN (Homo sapiens, UniProt P13500). As to the kind of experiment: Neutralisation of chemokine induced THP-1 cell migration. It counts as cell-based. The conditions noted are these: single concentration of peptide; EC80 CCL2 1.2 nM. As to the method: (§1) Table 1. Tick CKBPs described in PCT/GB2017/050563 and [17]. Tick peptide sequences isolated in yeast surface display fluorescent-activated cell sorting (FACS) screens using a labelled chemokine. Identity with Evasin-1, 4 or 3 was calculated using BLAST. Abbreviations: IXORI—Ixodes ricinus, RHISA—Rhipicephalus sanguineus, AMBMA—Amblyomma maculatum, AMBPA—Amblyomma parvum, AMBTR—Amblyomma triste, AMBAM—Amblyomma americanum, AMBCA—Amblyomma cajennense, RHIPU—Rhipicephalus pulchellus. Table 2A-C. Binding characteristics of tick CKBPs previously disclosed (PCT/GB2017/050563 and [17]). All members of the human chemokine family[164] are listed in column 1. Binding to human chemokines was determined for 14 tick CKBPs using biolayer interferometry (BLI) with calculated Kd shown as Molar (Moles/Litre). Binding data for 17 other novel tick CKBPs was assayed using yeast surface display[17,166],with positive binding results shown as “YES”. For biolayer interferometry, His-tagged purified tick CKBP was bound to a Ni-NINTA sensor on an OctetRed® 384 system, and then binding to each chemokine listed (with the exception of CCL25, CCL26, CXCL16, CXCL17, CXCL4L1, XCL2) was assayed in a cross-binding screen at a chemokine concentration of 300 nM as described. For those chemokines showing binding to a tick CKBP in the cross-binding screen, binding assays were repeated using different doses of chemokine. Association, equilibrium and dissociation data were analysed using Octet software to create corresponding fitted curves, and used to calculate Kd. For yeast surface display, (YSD) background fluorescence was controlled for by using either an empty vector or by omitting the chemokine (i.e. using streptavidin-Alexa647 alone). An arbitrary threshold of >3 fold over background mean fluorescence intensity was chosen to describe confirmed re-tests. Where binding was detected data are indicated as “YES”. […] For yeast surface display data, empty cells represent chemokines that were not tested. Binding data published in relation to previously described tick CKBPs (Evasins-1, 4 and 3) is also shown for comparison in each of FIGS. 2A-C, with the relevant data obtained from publications: [20-22,32]. Table 3: Neutralisation of human chemokines by tick CKBPs previously disclosed (PCT/GB2017/050563 and [17]). Neutralising activity was determined using a quantitative THP1 cell migration assay in a 96-well Boyden chamber with chemokine in the bottom chamber as described. Cells migrating through to the bottom chamber at 4 hours were counted using flow cytometry in a 96 well plate format. IC50 for neutralisation was determined at the chemokine EC80 dose as determined using a range of tick CKBP concentrations. Data was analysed using GraphPad Prism to determine IC50, which is shown as Molar (Moles/Litre). Empty cells represent experiments not done. Table 4—Other previously described tick CKBPs. Tick CKBPs that were also described in PCT/GB2017/050563 and Singh et al. are indicated in “Notes”. Table 5.—Novel tick CKBPs of the invention. Table 6. […] The peptide sequence prefix indicates the identity, and suffix indicate the tick species as follows: AMBCA, Amblyomma cajennense and IXORI, Ixodes ricinus. […] Individual yeast clones recovered from the library were re-tested using a FACS (fluorescence activated cell sorting), experiment. The binding of the peptide to the chemokine was assayed by measuring the percent (%), of yeast cells expressing the given peptide that exceeded a background threshold set by measuring the fluorescence of the yeast library pool treated with streptavidin-[…] alone. When more than one independent yeast clone was isolated for a given peptide-chemokine combination, the mean percent shift was calculated and reported in column 3.

For test [2], the target named is T1, CCL3_HUMAN (Homo sapiens, UniProt P10147).
T1 sequence (P10147 24-92): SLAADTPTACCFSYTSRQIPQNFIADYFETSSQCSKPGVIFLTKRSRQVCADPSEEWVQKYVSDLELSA
The test is described as above. It counts as cell-based. The conditions noted are these: single concentration of peptide; EC80 CCL3 3.5 nM. As to the method: as §1

Test [3] concerns the target T2, CCL8_HUMAN (Homo sapiens, UniProt P80075).
T2 sequence (P80075 24-99): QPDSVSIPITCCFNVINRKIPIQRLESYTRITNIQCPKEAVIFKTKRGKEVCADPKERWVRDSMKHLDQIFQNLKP
Described as above. The note with it: single concentration of peptide; EC80 CCL8 5.8 nM. The test is classed as cell-based. The method, then: as §1

Test [4] addresses CCL7_HUMAN (Homo sapiens, UniProt P80098). The test is described as above. It counts as cell-based. The conditions noted are these: single concentration of peptide; EC80 CCL7 7.2 nM. The method, then:
as §1

In test [5] the target is T3, human CCL2-647 (Homo sapiens, UniProt P13500).
T3 construct: purchased Almac (UK)
T3 sequence (P13500 24-99): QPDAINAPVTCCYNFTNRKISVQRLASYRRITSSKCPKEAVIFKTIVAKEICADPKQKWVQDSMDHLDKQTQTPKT
As to the kind of experiment: Fluorescent chemokine binding to THP-1 cells (flow cytometry). The conditions noted are these: CCL2-647 1.2 nM, read-out: IC50 against CCL2-647 induced THP-1 cellular fluorescence. The test is classed as cell-based. As to the method: Data are shown as mean of two technical replicates. […] Curves were fitted with 4 parameters to estimate IC50.
Fluorescent chemokine (conjugated to AlexaFluor-647) binding to THP-1 cells results in an increase in the cellular fluorescence intensity, which is quantitatively measured using flow cytometry.
Fluorescent Chemokine/Receptor Blocking Assay CCL8-647 (2.5 nM, final) or […] (1.2 nM, final) was incubated for 30 minutes with varying doses of peptide (0-100 μM, final concentration) in 50 μL assay buffer (RPMI-1640+L-glutamine (4 mM)+10% heat treated fetal bovine serum+0.2% DMSO) at 37° C. This mixture was then added to 50,000 THP-1 cells in a 96-well v-bottomed plated to give a final volume of 100 μL, and everything incubated together for a further 30 minutes at 37° C. Following this time, the plate was centrifuged, the supernatant flicked off, and the cells resuspended in 150 μL ice cold PBSA. This was repeated twice more and the cells were finally resuspended in 150 μL ice cold PBSA. The median fluorescence intensity of 10,000 cells on the RL-1 channel was determined using an ATTUNE flow cytometer and plotted as function of peptide concentration and the data fitted to an inhibitor response curve with 4 parameters using Graph Pad prism 6. Experiments were performed as two technical and three biological replicates.

Test [6] concerns the target T4, CXCL9_HUMAN (Homo sapiens, UniProt Q07325).
T4 sequence (Q07325 23-125): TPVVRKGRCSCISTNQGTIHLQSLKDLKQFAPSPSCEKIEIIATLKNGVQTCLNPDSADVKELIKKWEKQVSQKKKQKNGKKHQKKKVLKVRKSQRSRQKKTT
As to the kind of experiment: Yeast surface display (YSD) FACS binding. The conditions noted are these: FACS re-test; mean percent shift where several clones. As to the method: Table 1. Tick CKBPs described in PCT/GB2017/050563 and [17]. Tick peptide sequences isolated in yeast surface display fluorescent-activated cell sorting (FACS) screens using a labelled chemokine. Identity with Evasin-1, 4 or 3 was calculated using BLAST. Abbreviations: IXORI—Ixodes ricinus, RHISA—Rhipicephalus sanguineus, AMBMA—Amblyomma maculatum, AMBPA—Amblyomma parvum, AMBTR—Amblyomma triste, AMBAM—Amblyomma americanum, AMBCA—Amblyomma cajennense, RHIPU—Rhipicephalus pulchellus. Table 2A-C. Binding characteristics of tick CKBPs previously disclosed (PCT/GB2017/050563 and [17]). All members of the human chemokine family[164] are listed in column 1. Binding to human chemokines was determined for 14 tick CKBPs using biolayer interferometry (BLI) with calculated Kd shown as Molar (Moles/Litre). […] Association, equilibrium and dissociation data were analysed using Octet software to create corresponding fitted curves, and used to calculate Kd. For yeast surface display, (YSD) background fluorescence was controlled for by using either an empty vector or by omitting the chemokine (i.e. using streptavidin-Alexa647 alone). An arbitrary threshold of >3 fold over background mean fluorescence intensity was chosen to describe confirmed re-tests. Where binding was detected data are indicated as “YES”. […] Data was analysed using GraphPad Prism to determine IC50, which is shown as Molar (Moles/Litre). […]
In general terms: A flow cytometer gives signals particle by particle.

Positions of bridges follow the written chain, without caps; N, C: chain ends. Residues, ends and D or L forms follow the SMILES beside them.

CCL7_HUMAN, sequence (P80098 24-99): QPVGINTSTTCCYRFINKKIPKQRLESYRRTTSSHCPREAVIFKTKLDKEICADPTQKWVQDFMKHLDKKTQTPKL
CCL2_HUMAN, sequence (P13500 24-99): as the sequence (P13500 24-99) above

Regarding `CC(C)[C@@H]1NC(=O)[C@@H]2CCCN2C(=O)[C@H](CCCCN)NC(=O)[C@H](Cc2ccccc2)NC(=O)[C@H](Cc2ccccc2)NC(=O)[C@H](CC(=O)O)NC(=O)[C@H](CCC(=O)O)NC(=O)[C@H](Cc2ccc(O)cc2)NC(=O)[C@H](CC(=O)O)NC(=O)[C@H](CCC(=O)O)NC(=O)[C@H](CC(=O)O)NC(=O)[C@H](CCC(=O)O)NC(=O)[C@H](Cc2ccc(O)cc2)NC(=O)CSC[C@@H](C(=O)N[C@@H](Cc2ccc(O)cc2)C(=O)N[C@@H](Cc2ccccc2)C(N)=O)NC(=O)[C@H]([C@@H](C)O)NC1=O` [BK1.2] ({CH2CO}-YEDEDYEDFFKPVTCYF-NH2; thioether N-15), the “Effect on CCL2-induced THP-1 cell migration” value in test [1] is “stronger effect”. Besides, the “Effect on CCL3-induced THP-1 cell migration” value in test [2] was “significantly reduced”. In addition, in test [3], the “Effect on CCL8-induced THP-1 cell migration” value is listed as “reduced CCL8 induced cell migration to baseline levels”. For the same compound, the “Effect on CCL7-induced THP-1 cell migration” value in test [4] is recorded as “stronger effect”. In addition, the IC50 in test [5] is 6.3 µM.

For “P1124_IXORI: novel CXC-binding tick CKBP, Ixodes ricinus (DSKGTSDSQDSTKSIKVDFCETNCTKTDGGWTGCTGDCICVSVGDSIEGRCMDFG; listed as Ixodes ricinus)”, the “Chemokines bound in yeast surface display and % cells over threshold fluorescence: CXCL9_HUMAN” value in test [6] is listed as “CXCL9_HUMAN 31%”.
